From patent publication US12648917B2 (University of Florida Research Foundation, Incorporated, priority 2017, dated 2026)
Entries after “also recorded” stand apart in the source; their conditions may differ.

What was measured:
RAN protein translation = experiment: RAN protein levels by protein blot in HEK293T cells transfected with repeat expansion constructs; assay type: cell-based; conditions: for RAN polyGP protein levels, dose dependence: HEK293T cells transiently transfected with G4C2 expansion constructs (FIG. 4)
Description: . […] Protein blots were run on protein lysates from HEK293T cells transfected with various repeat expansion constructs shown in FIG. 1A. In FIG. 1B, the lanes labeled KMQ, show: RAN poly-Ser-Flag, RAN poly-Ala-HA, ATG initiated polyGln-Myc. In FIG. 1B, the lanes labeled KMQ has a methionine encoding ATG immediately 5′ to the CAG repeat expansion and located within the polyGln reading frame. The lanes labeled KKQ indicate the KKQ vector contains a CAG expansion without an AUG initiation codon, and indicates: RAN polySer-Flag, RAN polyAla-HA, RAN polyGln-Myc. These constructs contain epitope tags that are incorporated into the C-terminal regions of the ATG-initiated poly-Gln and non-ATG initiated RAN proteins (poly-Gln, poly-Leu-Pro-Ala-Cys and poly-Gly-Pro) which are expressed across these repeat expansions. The lane labeled CCTG expresses the following RAN proteins: RAN polyLPAC-Flag, RAN polyLPAC-HA, RAN polyLPAC-Myc. The lane labeled G4C2 is designed to detect the following RAN proteins: RAN polyGP-Flag, RAN polyGR-HA, RAN polyGA-Myc. […].
(§1) HEK293T cells were cultured in DMEM medium supplemented with 10% fetal bovine serum and incubated at 37° C. in a humid atmosphere containing 5% CO2. DNA transfections were performed using Lipofectamine 2000 Reagent (Invitrogen) according to the manufacturer's instructions.
(§2) Transfected cells in each well of a six-well tissue-culture plate were rinsed with PBS and lysed in 300 μL RIPA buffer with protease inhibitor cocktail for 45 min on ice. DNA was sheared by passage through a 21-gauge needle. The cell lysates were centrifuged at 16,000×g for 15 min at 4° C., and the supernatant was collected. The protein concentration of the cell lysate was determined using the protein assay dye reagent (Bio-Rad). Twenty micrograms of protein were separated in a 4-12% NuPAGE Bis-Tris gel (Invitrogen) and transferred to a nitrocellulose membrane (Amersham). The membrane was blocked in 5% dry milk in PBS containing 0.05% Tween-20 (PBS-T) and probed with the anti-Flag (1:2000), anti-Myc (1:1000), anti-HA (1:1000), or rabbit polyclonal antibodies (1:1000) in blocking solution. After the membrane was incubated with anti-rabbit or anti-mouse HRP-conjugated secondary antibody (Amersham), bands were visualized by the ECL plus Western Blotting Detection System (Amersham).
. Transient transfections of expansion constructs treated with or without metformin were performed. […]. […] Protein blots were run on protein lysates from HEK293T cells transfected with various repeat expansion constructs shown in FIG. 5A. In FIG. 5B, the lanes labeled KMQ, show: RAN poly-Ser-Flag, RAN poly-Ala-HA, ATG initiated polyGln-Myc. In FIG. 5B the lanes labeled KMQ has a methionine encoding ATG immediately 5′ to the CAG repeat expansion and located within the polyGln reading frame. The lanes labeled KKQ indicate the KKQ vector contains a CAG expansion without an AUG initiation codon, and indicates: RAN polySer-Flag, RAN polyAla-HA, RAN polyGln-Myc. These constructs contain epitope tags that are incorporated into the C-terminal regions of the ATG-initiated poly-Gln and non-ATG initiated RAN proteins (poly-Gln, poly-Leu-Pro-Ala-Cys and poly-Gly-Pro) which are expressed across these repeat expansions. The lane labeled CCTG expresses the following RAN proteins: RAN polyLPAC-Flag, RAN polyLPAC-HA, RAN polyLPAC-Myc. The lane labeled G4C2 is designed to detect the following RAN proteins: RAN polyGP-Flag, RAN polyGR-HA, RAN polyGA-Myc. […].

PKR = target: T1, PKR (Homo sapiens, UniProt P19525); experiment: p-PKR (T446 and T451) levels by protein blot in HEK293T cells transfected with repeat expansion constructs; assay type: cell-based; conditions: for G4C2 repeat-expansion induced p-PKR (T446 and T451) levels, dose dependence: cells transfected with a G4C2 repeat expansion construct (FIG. 4)
T1 construct: endogenous in cells; host or cells: HEK293T
T1 sequence (P19525 whole entry): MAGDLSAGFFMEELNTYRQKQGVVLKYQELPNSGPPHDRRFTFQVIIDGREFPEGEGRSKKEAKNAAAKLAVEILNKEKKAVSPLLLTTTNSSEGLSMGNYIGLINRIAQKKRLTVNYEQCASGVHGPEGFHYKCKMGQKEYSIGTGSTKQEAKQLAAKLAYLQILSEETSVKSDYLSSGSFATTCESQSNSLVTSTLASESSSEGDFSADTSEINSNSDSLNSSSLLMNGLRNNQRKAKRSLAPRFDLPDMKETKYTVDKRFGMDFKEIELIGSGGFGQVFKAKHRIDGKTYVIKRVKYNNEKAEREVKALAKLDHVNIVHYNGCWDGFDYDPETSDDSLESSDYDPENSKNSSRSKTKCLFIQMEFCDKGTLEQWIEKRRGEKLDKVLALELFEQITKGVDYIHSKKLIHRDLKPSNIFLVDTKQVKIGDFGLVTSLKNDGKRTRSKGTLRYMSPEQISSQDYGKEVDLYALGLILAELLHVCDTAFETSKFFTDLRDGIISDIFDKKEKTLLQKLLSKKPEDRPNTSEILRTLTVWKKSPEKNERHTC
Protocol: as §1, §2
[…]. Transient transfections of expansion constructs treated with or without metformin were performed. […].

C9-BAC mice = experiment: Open field analysis (center time) in C9-BAC mice; assay type: in vivo, mouse; conditions: Group A metformin-treated C9 mice compared to untreated C9 mice
Protocol: Open field analysis. Open field analysis was performed by testing mouse behavior during a 30 min session in a completely dark open chamber (17″×17″) (Med Associates). Approximately two hours before the start of analysis, mice were placed in the testing room to allow for acclimation to the room. Mice were then placed in the center of the darkened activity-monitoring chamber. The trace path and center time was recorded and analyzed with Activity Monitor (MED associates, Inc.) software.
(§3) In Group A animals, treatment began at 2 months of age, before the onset of overt behavioral or pathological phenotypes. In Group B, smaller cohorts of animals (n=8/group) were treated beginning at 6 months, an age at which behavioral phenotypes are evident. DigiGait analyses of Group A mice at 5 months identified eight DigiGait parameters that differed between untreated C9 and NT cohorts. […]. […] […].
DigiGait analyses of Group A mice at 5 months identified eight parameters that differed between untreated C9 and NT cohorts. […]. […]. […]

[1] = tested on: glial fibrillary acidic protein (GFAP); experiment: IHC staining for GFAP (neuroinflammation, reactive gliosis) in C9-BAC mice; assay type: in vivo, mouse
GA aggregates = GA aggregates in retrosplenial cortex of C9-BAC mice; assay type: in vivo, mouse; conditions: for reduction in the number of GA aggregates compared to C9 controls: 5 mg/ml in drinking water
Protocol: as §3
Cancer Prev Res (Phila) 3, 1066-1076, doi: 10.1158/1940-6207. CAPR-10-0055 (2010)). In Group A animals, three months of treatment began at 2 months of age, before the onset of overt behavioral or pathological phenotypes. In Group B, smaller cohorts of animals were treated for four months beginning at 6 months, an age at which behavioral phenotypes are evident^12.

[2] = tested on: glycine-proline (GP) RAN protein; experiment: GP RAN protein levels in leukocyte lysates from peripheral blood of a C9ORF72 expansion-positive subject; assay type: in vivo; conditions: single human subject with C9ORF72 repeat expansion, 500 or 1000 mg/day Metformin Hydrochloride Extended Release Tablets, 10 to 30 days after treatment
Description: […]. […] […]. […] […]

[3] = metformin 5 mg/ml in the drinking water; previously shown, comparable to human doses of 20 mg/kg/day; cited from earlier work

SMILES	RAN polyGP protein levels, dose dependence (RAN protein translation)	G4C2 repeat-expansion induced p-PKR (T446 and T451) levels, dose dependence (PKR)	open field center time (anxiety-like behavior) (C9-BAC mice)	RAN protein levels of poly-Ala (RAN protein translation; HEK293T cells transfected with CAG repeat expansion constructs, treated with metformin, protein blot)	RAN protein levels of poly-LPAC (all three reading frames) (RAN protein translation; HEK293T cells transfected with CCTG repeat expansion construct, treated with metformin, protein blot)	RAN protein levels of poly-GP (RAN protein translation; HEK293T cells transfected with G4C2 (GGGGCC) repeat expansion construct, treated with metformin, protein blot)	RAN protein levels / expression (RAN protein translation; HEK293T cells transiently transfected with CAG, CCTG, CAGG and G4C2 expansion constructs (FIG. 3A))	p-PKR (T446 and T451) levels / PKR phosphorylation (PKR; cells transfected with repeat expansion constructs, with or without metformin (FIG. 3B, FIG. 6A))	GFAP staining / reactive gliosis compared to untreated C9 animals, in words ([1]; C9 metformin treated vs untreated C9 animals (Group A))	reduction of GFAP staining compared to untreated C9 mice ([1]; Group A) [%]	reduction of GFAP staining compared to untreated C9 mice ([1]; Group B) [%]	reduction in the number of GA aggregates compared to C9 controls (GA aggregates; Group A (treated from 2 months of age, 3 months), P=0.01) [%]	reduction in the number of GA aggregates compared to C9 controls (GA aggregates; Group B (treated from 6 months of age), P=0.047) [%]	GA aggregates compared to untreated C9 controls, in words (GA aggregates; metformin in drinking water, Group A and Group B)	glycine-proline (GP) RAN protein levels compared to pretreatment levels [2]	plasma levels [3] [µM]
CCCCNC(=N)NC(=N)N [buformin]	reduce GP RAN protein levels in a dose-dependent manner	reduce levels of p-PKR														
CN(C)C(=N)NC(=N)N [metformin]	reduce GP RAN protein levels in a dose-dependent manner	reduce levels of p-PKR	increased center time; also recorded: normalization or increased center time; also recorded: normalized	reduced; also recorded: decreases	reduced; also recorded: decreases	reduced; also recorded: decreases	decreases RAN protein levels; also recorded: reduces RAN protein expression	decreases PKR phosphorylation; also recorded: reduces levels of p-PKR	significantly reduced; also recorded: decreased levels of reactive gliosis	79	74	38	37	decreased numbers of GA aggregates; also recorded: reduction in GA aggregates	Dose dependent reduction; also recorded: Dose-dependent reduction	~10
[H]/N=C(/N)N/C(=N/[H])NCCc1ccccc1 [phenformin]	reduce GP RAN protein levels in a dose-dependent manner	reduce levels of p-PKR														
